Assay [1] concerns the target T1, acetyl cholinesterase (AChE) (Homo sapiens, UniProt P22303). To be noted: for AChE %age inhibition: test concentration not given.
Assay [2] deals with T2, monoamine oxidase A (MAO-A, extracted) (Homo sapiens, UniProt P21397).
T2 sequence (P21397 1-527): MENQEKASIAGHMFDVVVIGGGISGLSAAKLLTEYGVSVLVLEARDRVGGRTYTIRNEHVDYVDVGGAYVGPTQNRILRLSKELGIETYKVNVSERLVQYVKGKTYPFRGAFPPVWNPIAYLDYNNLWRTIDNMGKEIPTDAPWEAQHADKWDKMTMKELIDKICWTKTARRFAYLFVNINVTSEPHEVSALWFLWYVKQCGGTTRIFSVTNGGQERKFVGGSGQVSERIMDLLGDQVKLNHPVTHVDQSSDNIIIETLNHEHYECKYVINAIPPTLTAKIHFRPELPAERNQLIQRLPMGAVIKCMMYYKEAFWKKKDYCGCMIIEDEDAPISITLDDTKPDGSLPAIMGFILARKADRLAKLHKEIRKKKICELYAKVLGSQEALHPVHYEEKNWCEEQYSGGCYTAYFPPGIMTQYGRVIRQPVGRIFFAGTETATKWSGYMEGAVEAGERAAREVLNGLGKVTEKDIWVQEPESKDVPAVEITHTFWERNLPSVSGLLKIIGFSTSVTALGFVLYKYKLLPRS
To be noted: for MAO-A %age inhibition: compounds not above 50% inhibition, test concentration not given.

Assay [3] deals with butyryl cholinesterase (BChE) (Homo sapiens, UniProt P06276). As to the kind of experiment: Butyryl cholinesterase inhibition assay. It is filed as biochemical. As to conditions: for BChE %age inhibition: test concentration not given.
For assay [4], the target named is T3, monoamine oxidase B (MAO-B, extracted) (Homo sapiens, UniProt P27338).
T3 sequence (P27338 1-520): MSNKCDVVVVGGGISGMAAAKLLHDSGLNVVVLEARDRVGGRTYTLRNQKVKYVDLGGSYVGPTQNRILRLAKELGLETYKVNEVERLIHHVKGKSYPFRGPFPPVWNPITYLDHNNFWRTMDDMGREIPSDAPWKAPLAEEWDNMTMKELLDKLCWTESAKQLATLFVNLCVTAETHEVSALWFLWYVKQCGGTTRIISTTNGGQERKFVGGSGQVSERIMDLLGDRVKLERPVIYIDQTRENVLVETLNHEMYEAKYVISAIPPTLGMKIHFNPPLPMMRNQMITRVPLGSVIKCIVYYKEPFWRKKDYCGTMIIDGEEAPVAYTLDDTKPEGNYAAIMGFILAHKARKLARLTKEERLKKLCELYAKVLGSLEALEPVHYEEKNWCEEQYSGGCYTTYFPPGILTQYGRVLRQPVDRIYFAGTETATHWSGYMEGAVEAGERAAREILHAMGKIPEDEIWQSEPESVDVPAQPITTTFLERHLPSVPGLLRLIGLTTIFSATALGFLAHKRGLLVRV
To be noted: for MAO-B %age inhibition: compounds not above 50% inhibition, test concentration not given.

Assay [5] has as its target T1, acetyl cholinesterase (AChE). As to the kind of experiment: biochemical.
The target of assay [6] is T3, monoamine oxidase B (MAO-B, extracted). As to the kind of experiment: biochemical.
Method: (§1) Newly synthesized compounds were tested on monoamine oxidase A and B (extracted). […] Reaction mixture was composed of 100 μL of total assay volume having 30 μL buffer (pH 7.4), 10 μL test compounds, 10 μL of extracted enzyme (MAO-A: 13 μg mL^−1, MAO-B: 15 μg mL^−1), 30 μL of amplex red and 20 μL of substrate (p-tyramine). Initially reaction mixture having buffer + test compound + enzyme was incubated for 15 minutes for MAO-A And MAO-B. After Incubation the amplex red reagent was added followed by addition of substrate p-tyramine. The change in the fluorescence was determined by using fluorescence plate reader: FLUOstar® Omega (BMG Labtech GmbH, orten berg Germany). […] All experiments were performed in triplicate. IC50 values were calculated by non-linear curve fitting program PRISM 5.0 (GraphPad, San Diego, California, USA) where log inhibitor vs. response curve was generated.
In assay [7] the target is T2, monoamine oxidase A (MAO-A, extracted). The assay is described as follows: biochemical.
Method: as §1

“Also recorded” adds a separate entry of the source. Marks after values point to notes of the source that are not given here.

Sequence of butyryl cholinesterase (BChE) (P06276 29-602, species assumed): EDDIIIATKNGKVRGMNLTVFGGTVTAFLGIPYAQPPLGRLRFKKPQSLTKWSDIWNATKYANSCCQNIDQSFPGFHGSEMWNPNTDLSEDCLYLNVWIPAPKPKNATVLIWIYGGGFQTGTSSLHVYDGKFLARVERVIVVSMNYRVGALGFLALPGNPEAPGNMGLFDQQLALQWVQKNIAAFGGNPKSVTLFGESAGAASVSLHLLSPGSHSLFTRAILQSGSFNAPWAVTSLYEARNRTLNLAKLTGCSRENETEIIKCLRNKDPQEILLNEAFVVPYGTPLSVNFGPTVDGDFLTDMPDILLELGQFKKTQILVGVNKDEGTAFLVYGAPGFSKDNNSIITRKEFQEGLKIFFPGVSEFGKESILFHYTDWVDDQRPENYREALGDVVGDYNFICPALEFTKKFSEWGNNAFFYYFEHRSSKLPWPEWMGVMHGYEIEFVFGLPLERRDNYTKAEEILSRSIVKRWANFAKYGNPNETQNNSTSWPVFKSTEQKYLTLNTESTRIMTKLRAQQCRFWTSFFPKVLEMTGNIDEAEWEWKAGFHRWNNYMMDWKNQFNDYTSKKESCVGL
T1 sequence (P22303 32-614, species assumed): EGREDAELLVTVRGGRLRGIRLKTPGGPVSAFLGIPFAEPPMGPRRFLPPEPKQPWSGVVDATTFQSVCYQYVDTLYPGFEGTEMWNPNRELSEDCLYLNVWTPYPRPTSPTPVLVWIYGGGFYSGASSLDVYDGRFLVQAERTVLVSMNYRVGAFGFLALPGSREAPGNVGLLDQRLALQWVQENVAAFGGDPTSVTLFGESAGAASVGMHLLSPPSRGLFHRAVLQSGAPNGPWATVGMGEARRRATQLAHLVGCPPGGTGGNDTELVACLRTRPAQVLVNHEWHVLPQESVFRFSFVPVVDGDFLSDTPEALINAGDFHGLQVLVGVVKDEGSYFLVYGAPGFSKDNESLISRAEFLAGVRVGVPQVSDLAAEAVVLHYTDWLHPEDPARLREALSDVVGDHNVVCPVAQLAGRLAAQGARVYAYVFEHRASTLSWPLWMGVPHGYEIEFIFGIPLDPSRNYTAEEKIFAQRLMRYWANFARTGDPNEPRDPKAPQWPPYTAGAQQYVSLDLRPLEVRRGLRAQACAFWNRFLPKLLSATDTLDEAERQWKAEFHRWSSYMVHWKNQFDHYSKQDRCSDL

`FC(F)(F)c1ccc(-c2nnc(Nc3ccc(Br)cc3)o2)cc1` [Compound 4l, N-(4-Bromophenyl)-5-(4-(trifluoromethyl)phenyl)-1,3,4-oxadiazol-2-amine]: in assay [1], the “inhibition against AChE (in words)” value is reported as “moderate to weak inhibition; also recorded: demolished the activity” and the AChE %age inhibition turned out to be 44.56% ^c. In assay [2], the “inhibition against MAO-A (in words)” value is listed as “weak inhibition; also recorded: demolished the activity” and the MAO-A %age inhibition is 36.81 ^c %. For the same molecule, in assay [3], the “inhibition against BChE (in words)” value was “demolished the activity” and the BChE %age inhibition was determined as 26.91% ^c. Besides, in assay [4], the “inhibition against MAO-B (in words)” value is on record as “demolished the activity” and the MAO-B %age inhibition is reported as 24.86 ^c %.

Take `Fc1cc(F)cc(Cc2nnc(Nc3ccc(F)cc3F)o2)c1` [Compound 4g, N-(2,4-Difluorophenyl)-5-(3,5-difluorobenzyl)-1,3,4-oxadiazol-2-amine]: the IC50 (in general, the concentration that gives 50% inhibition) in assay [5] amounted to 1110 ± 80 nM; in assay [6], 2020 ± 1260 nM; in assay [7] it was 1210 ± 40 nM. Further, the “inhibition against MAO-A (in words)” value in assay [2] was “potent inhibition”. This molecule gave a BChE %age inhibition in assay [3] of 15.23% ^c. Also, the “inhibition against MAO-B (in words)” value in assay [4] was “strong inhibition”.

For the molecule `Fc1cc(F)cc(Cc2nnc(Nc3ccccc3F)o2)c1` [Compound 4f, 5-(3,5-Difluorobenzyl)-N-(2-fluorophenyl)-1,3,4-oxadiazol-2-amine], the “inhibition against AChE (in words)” value in assay [1] is “potent inhibition”. Besides, it took 2030 ± 434 nM to reach half-maximal inhibition in assay [5] (IC50). In addition, in assay [2], the “inhibition against MAO-A (in words)” value is “weak inhibition” and the MAO-A %age inhibition is on record as 34.82 ^c %. The same molecule returned a BChE %age inhibition in assay [3] of 22.61% ^c. Besides, in assay [4], the MAO-B %age inhibition is listed as 39.46 ^c %.

As for `c1ccc(Nc2nnc(-c3ccncc3)o2)cc1` [Compound 4d, N-Phenyl-5-(pyridin-4-yl)-1,3,4-oxadiazol-2-amine], the “inhibition against MAO-A (in words)” value in assay [2] was “potent inhibition; also recorded: promising inhibitory effects”. For the same molecule, the BChE %age inhibition in assay [3] was found to be 23.67% ^c. Further, inhibition in assay [7] was half-maximal at 1440 ± 220 nM (IC50). In addition, the “inhibition against MAO-B (in words)” value in assay [4] is on record as “strong inhibition; also recorded: promising inhibitory effects”.

On to `CC(C)c1ccc(Nc2nnc(-c3ccc(C(F)(F)F)cc3)o2)cc1` [Compound 4m, N-(4-Isopropylphenyl)-5-(4-(trifluoromethyl)phenyl)-1,3,4-oxadiazol-2-amine], for which, in assay [2], the “inhibition against MAO-A (in words)” value is “potent inhibition”. Moreover, in assay [3], the BChE %age inhibition was found to be 15.78% ^c. The molecule also yielded an IC50 in assay [7] of 110 ± 1 nM. In assay [4], the “inhibition against MAO-B (in words)” value is “strong inhibition”.

`Cc1ccc(Nc2nnc(-c3cccc(F)c3)o2)c(C)c1` [Compound 4e, N-(2,4-Dimethylphenyl)-5-(3-fluorophenyl)-1,3,4-oxadiazol-2-amine]: the “inhibition against AChE (in words)” value in assay [1] was “potent inhibition”. The IC50 was 1960 ± 176 nM in assay [5], 1910 ± 890 nM in assay [6] and 1470 ± 450 nM in assay [7]. Moreover, the “inhibition against MAO-A (in words)” value in assay [2] was “potent inhibition”. The same molecule displayed a BChE %age inhibition in assay [3] of 10.54% ^c. For the same molecule, in assay [4], the “inhibition against MAO-B (in words)” value is listed as “strong inhibition”.

For the molecule `Cc1ccccc1Nc1nnc(-c2ccccc2)o1` [Compound 4n, 5-Phenyl-N-(o-tolyl)-1,3,4-oxadiazol-2-amine], in assay [2], the “inhibition against MAO-A (in words)” value is reported as “weak inhibition” and the MAO-A %age inhibition was 21.07 ^c %. For the same molecule, the BChE %age inhibition in assay [3] is on record as 28.87% ^c. The MAO-B %age inhibition in assay [4] is 18.47 ^c %.

Turning to `Cc1ccc(F)c(-c2nnc(Nc3ccccc3F)o2)c1` [Compound 4h, 5-(2-Fluoro-5-methylphenyl)-N-(2-fluorophenyl)-1,3,4-oxadiazol-2-amine], the “inhibition against AChE (in words)” value in assay [1] is listed as “potent inhibition”. The molecule also returned an IC50 in assay [5] of 1510 ± 462 nM. Moreover, in assay [2], the “inhibition against MAO-A (in words)” value is reported as “weak inhibition” and the MAO-A %age inhibition is 21.87 ^c %. In assay [3], this molecule registered a BChE %age inhibition of 12.43% ^c. For the same molecule, the MAO-B %age inhibition in assay [4] is 29.36 ^c %.

`Cc1c(F)cccc1-c1nnc(Nc2ccccc2)o1` [Compound 4o, 5-(3-Fluoro-2-methylphenyl)-N-phenyl-1,3,4-oxadiazol-2-amine] registered an IC50 in assay [5] of 2320 ± 80 nM. Besides, the MAO-A %age inhibition in assay [2] was 29.98 ^c %. The BChE %age inhibition in assay [3] turned out to be 32.98% ^c. Further, the MAO-B %age inhibition in assay [4] is listed as 22.65 ^c %.

For the molecule `Fc1ccccc1Nc1nnc(-c2ccc(C(F)(F)F)cc2)o1` [Compound 4i, N-(2-Fluorophenyl)-5-(4-(trifluoromethyl)phenyl)-1,3,4-oxadiazol-2-amine], in assay [1], the “inhibition against AChE (in words)” value is “potent inhibition; also recorded: moderate to weak inhibition” and the AChE %age inhibition is 37.12% ^c. For the same molecule, in assay [2], the “inhibition against MAO-A (in words)” value is reported as “weak inhibition” and the MAO-A %age inhibition is 38.11 ^c %. For the same molecule, the BChE %age inhibition in assay [3] worked out at 21.45% ^c. Further, in assay [4], the MAO-B %age inhibition is 32.53 ^c %.

Take `N#Cc1cccc(Nc2nnc(-c3ccc(C(F)(F)F)cc3)o2)c1` [Compound 4a, 3-((5-(4-(Trifluoromethyl)phenyl)-1,3,4-oxadiazol-2-yl)amino)benzonitrile]: in assay [1], the “inhibition against AChE (in words)” value is on record as “moderate to weak inhibition” and the AChE %age inhibition was 42.32% ^c. In assay [2], the “inhibition against MAO-A (in words)” value is given as “weak inhibition” and the MAO-A %age inhibition is listed as 33.23 ^c %. Besides, the BChE %age inhibition in assay [3] came to 20.54% ^c. Moreover, the MAO-B %age inhibition in assay [4] was 37.06 ^c %.

As to `Cc1ccc(Nc2nnc(-c3ccncc3)o2)c(C)c1` [Compound 4k, N-(2,4-Dimethylphenyl)-5-(pyridin-4-yl)-1,3,4-oxadiazol-2-amine], in assay [1], the “inhibition against AChE (in words)” value is “moderate to weak inhibition; also recorded: lost its inhibitory effects” and the AChE %age inhibition worked out at 39.65% ^c. The “inhibition against MAO-A (in words)” value in assay [2] is listed as “potent inhibition”. For the same molecule, in assay [6], the IC50 worked out at 1100 ± 1160 nM. This molecule yielded a BChE %age inhibition in assay [3] of 14.67% ^c. In assay [7], this molecule had an IC50 of 3460 ± 2580 nM. The “inhibition against MAO-B (in words)” value in assay [4] is given as “strong inhibition; also recorded: restored its inhibitory effects”.

On to `Fc1ccccc1Nc1nnc(Cc2ccccc2C(F)(F)F)o1` [Compound 4c, N-(2-Fluorophenyl)-5-(2-(trifluoromethyl)benzyl)-1,3,4-oxadiazol-2-amine], for which the “inhibition against MAO-A (in words)” value in assay [2] was “potent inhibition”. In addition, the BChE %age inhibition in assay [3] turned out to be 14.76% ^c. In assay [7], half-maximal inhibition (IC50) required 1900 ± 250 nM. For the same molecule, the “inhibition against MAO-B (in words)” value in assay [4] is given as “strong inhibition”.

`N#Cc1cccc(Nc2nnc(-c3ccncc3)o2)c1` [Compound 4j, 3-((5-(Pyridin-4-yl)-1,3,4-oxadiazol-2-yl)amino)benzonitrile]: in assay [1], the “inhibition against AChE (in words)” value is “potent inhibition”. In assay [5], this molecule returned an IC50 of 1560 ± 309 nM. Also, in assay [2], the “inhibition against MAO-A (in words)” value is “potent inhibition”. This molecule came in with a BChE %age inhibition in assay [3] of 20.55% ^c. In addition, in assay [7], half-maximal inhibition (IC50) required 1020 ± 90 nM. Further, in assay [4], the “inhibition against MAO-B (in words)” value was “lost its inhibitory effects” and the MAO-B %age inhibition is reported as 18.57 ^c %.

With `N#Cc1cccc(Nc2nnc(Cc3ccccc3C(F)(F)F)o2)c1` [Compound 4b, 3-((5-(2-(Trifluoromethyl)benzyl)-1,3,4-oxadiazol-2-yl)amino)benzonitrile], in assay [1], the “inhibition against AChE (in words)” value is “moderate to weak inhibition” and the AChE %age inhibition turned out to be 31.34% ^c. Besides, in assay [3], the BChE %age inhibition stood at 23.65% ^c. Further, the IC50 in assay [7] came out at 2860 ± 1510 nM. For the same molecule, the MAO-B %age inhibition in assay [4] is 35.73 ^c %.

The record behind these values is PMC10253498 (RSC Advances, 2023).
